Test results published in patent publication US20260200849A1, “CATIONIC LIPIDS AND PREPARATION METHOD THEREOF” (RiboX Therapeutics HK Limited, priority 2024, published 2026).
Values joined by “and” are separate entries in the source; they are usually repeats but may differ in a detail not shown here. Equal entries are not always repeated. Where two headings read alike, the source gives them in different places.

Legend:
MCP-1 = experiment: In vivo tolerability by IM: serum MCP-1 by Luminex; conditions: IM 1.0 mg/kg, male C57BL/6J mice N=3, Formulation 001, RNA 331
Method: (§1) 6-8 week old, male C57BL/6J mice (N=3) were injected with 1.0 mg*kg−1 of RNA-LNPs encoding for firefly-luciferase by intramuscular injection. At 2- and 24-hours post injection, about 40 μL blood was harvested and immediately added to the procoagulant containing tube. Stand for 30 min at room temperature and then centrifuged at 2500 g×10 min to obtain serum. About 15 μL serum samples were aliquoted for cytokine (MCP-1 and IL-6) detection by Luminex (ProcartaPlex Mouse 2-plex, Thermo). PBS group as negative control.

[1] = RNA encapsulation efficacy (EE %) by Quant-IT Ribogreen kit; assay type: physicochemical; conditions: LNP
Method: (§2) The LNP size and polydispersity index (PDI), determined by dynamic light scattering (DLS), and zeta potential were measured by a Zetasizer machine (Malvern). RNA concentration and encapsulation efficacy (EE %) were analyzed by the Quant-IT Ribogreen kit by calculating the percentage encapsulation at 100%—(RNA-LNPs/RNA-LNPs with Triton X-100).

Hep G2 cells [2] = experiment: In vitro expression: luciferase activity in Hep G2 cells transfected with RNA-LNPs; assay type: cell-based; conditions: 100 ng/mL RNA-LNPs, 72 hours post transfection
Method: 2E5 Hep G2 cells were transfected with 100 ng/mL of RNA-LNPs encoding for firefly-luciferase. At 72 hours post transfection, the cells were washed and lysed. The luciferase expression (2-well repeat) was determined in the cell lysates with the luciferase assay reagent kit (Promega), according to the kit protocol, luciferase activity was measured by a luminometer.

injection site skin = experiment: In vivo tolerability after intradermal injection: H&E staining of injection site skin; design: species or system C57BL/6J mice; key to Infiltration, mononuclear cells, dermis/subcutaneous, focal, Grade / Edema, subcutaneous, focal, Grade / Erosion, focal, Grade / Skin, Grade: 1==minimal; 2=mild; 3=moderate; 4=marked; 5=severe; N=Normal; NA=Not applicable; —=No data; conditions: intradermal 0.15 mg/kg, 72 h, Formulation 001, RNA 331; for Total score: sum of lesion grades of the group (N=3)
Method: 7-8 week old, female C57BL/6J mice (N=3) were injected with 0.15 mg*kg−1 of RNA-LNIPs encoding for firefly-luciferase by intradermal injection. At 72-hours post injection, injection site skin from each animal was collected in 10% formalin, for H&E staining. PBS group (N=2) as control. (Note: 1==minimal, 2=mild, 3=moderate, 4=marked, 5=severe; N=Normal; NA=Not applicable; —=No data)

Hep G2 cells [3] = experiment: In vitro toxicity: Hep G2 cell viability by CellTiter-Glo; assay type: cell-based; conditions: 72 hours post transfection, cell only = 100%
Method: 2E5 Hep G2 cells were transfected with 1 μg/mL RNA-LNPs. At 72 hours post transfection, cell viability (2-well repeat) was determined with the CellTiter-Glo® reagent kit, according to the kit protocol, measured by a luminometer. Cell only as control (100%).
The cell viability was calculated according to the following formula: […]

IL-6 = experiment: In vivo tolerability by IM: serum IL-6 by Luminex; conditions: IM 1.0 mg/kg, male C57BL/6J mice N=3, Formulation 001, RNA 331
Method: as §1

Balb/c mice = experiment: In vivo expression by IV, 0.05 mg/kg luciferase RNA-LNPs, IVIS luminescence; conditions: female Balb/c mice, 0.05 mg*kg−1 intravenous; for Whole body at 24 h (p/s) (Mean) / Whole body at 72 h (p/s) (Mean): Formulation No. 010, RNA No. 331; for Whole body at 24 h (p/s) (Mean): 24 hours post injection; for Whole body at 72 h (p/s) (Mean): 72 hours post injection
In short: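 Female Balb/c mice (7-8 weeks, N=3) received 0.05 mg*kg−1 firefly-luciferase RNA-LNPs IV. Luciferin (15 mg/ml) was given IP at 24 and 72 h post-dose for IVIS whole-body luminescence. A second run imaged whole body, liver and spleen at 24 h only.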

[4] = LNP size and polydispersity index (PDI) by dynamic light scattering (Zetasizer); assay type: physicochemical; conditions: for Size (nm): RNA No. 331
Method: as §2

[5] = In vivo lipid metabolism by IV: ionizable lipid concentration in plasma and liver by LC-MS/MS; design: species or system Sprague-Dawley (SD) rats; conditions: IV 0.15 mg/kg RNA-LNPs (hEPO), male SD rats, individual animals N=3; for concentration at 6 h / concentration at 168 h / concentration at 1 h: male, Sprague-Dawley, rat, iv, 0.15 mg/kg
In short: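 Male SD rats, 7-8 weeks old (N=3), given 0.15 mg*kg−1 hEPO-encoding RNA-LNPs IV. Plasma sampled at 1, 6, 96 and 168 h and liver at 6 and 168 h terminally; ionizable lipid quantified by LC-MS/MS, LLOQ 1 ng/mL plasma, 11 ng/g liver.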

[6] = Formulation No. 001, RNA No. 019 (hEPO)
[7] = Formulation No. 001, RNA No. 331
[8] = Formulation No. 010, RNA No. 331
[9] = Formulation No. 010, RNA No. 331 (firefly-luciferase)
[10] = 1 μg/mL RNA-LNPs, Formulation 001, RNA 331
[11] = Formulation No. 010, RNA No. 331, 1 μg/mL RNA-LNPs
[12] = Formulation No. 010 (Ionizable lipid:DSPC:cholesterol:DSPE-PEG2000 = 38:30:30:2, N/P 6)
[13] = liver, 6 h post injection, read-out: Liver (ng/g), ionizable lipid concentration
[14] = Formulation No. 001, RNA No. 331, 24-hours post injection

EE (%) [1, 6] | EE (%) [1, 7] | EE (%) [1, 8] | PDI [4, 6] | Size [4, 6] | PDI [4, 7] | Structure (SMILES) | MCP-1 at 2 h (MCP-1) | MCP-1 at 24 h (MCP-1) | In vitro Expression (Mean) (Hep G2 cells [2]; Formulation 001, RNA 331) | In vitro Expression (Mean) (Hep G2 cells [2]; [9]) | Edema, subcutaneous, focal, Grade (injection site skin; per animal) | Erosion, focal, Grade (injection site skin; per animal) | Infiltration, mononuclear cells, dermis/subcutaneous, focal, Grade (injection site skin; per animal) | Total score (injection site skin) | In vitro cell viability (%) (Mean) (Hep G2 cells [3]; [10]) | In vitro cell viability (%) (Mean) (Hep G2 cells [3]; [11]) | IL-6 at 2 h (IL-6) | IL-6 at 24 h (IL-6) | Whole body at 24 h (p/s) (Mean) (Balb/c mice) | Whole body at 72 h (p/s) (Mean) (Balb/c mice) | other results
94.25% | 94.58% | 96.68% | 0.04 | 64.53 nm | 0.04 | CCCCC/C=C\C/C=C\CCCCCCCC(=O)NC(COC(=O)NCCN1CCCCC1)C(=O)OCCCCCCCC(=O)OC(CCCCCCCC)CCCCCCCC (centres unmarked) [Lipid 549] | 299 pg/mL | 3980 pg/mL | 7.02E+05 | 5.75E+05 | — and 1 (2×) | — | — and 1 (2×) | 4 | 79.09% | 88.89% | 27 pg/mL | 146 pg/mL | 2.75E+08 p/s | 7.85E+07 p/s | Skin, Grade (injection site skin; per animal): N; Size [4, 7]: 61.34 nm; Size (nm) [4, 12]: 57.35 nm; PDI [4, 8]: 0.13
97.48% | 93.81% |  | 0.05 | 59.39 nm | 0.01 | CCCCCCCCC(CCCCCC)C(=O)OCCCCCCCCOC(=O)NC(COC(=O)NCCN1CCCCC1)C(=O)OCCCCCCCCOC(=O)C(CCCCCC)CCCCCCCC (centres unmarked) [Lipid 888] |  |  |  |  |  |  |  |  |  |  |  |  |  |  | Plasma (ng/mL), ionizable lipid concentration ([5]; 1 h post injection): 1635 ng/mL and 1440 ng/mL; Liver (ng/g), ionizable lipid concentration ([5]; 6 h post injection): 31120 ng/g and 47483 ng/g; Plasma (ng/mL), ionizable lipid concentration ([5]; 6 h post injection): 966 ng/mL and 975 ng/mL; Plasma (ng/mL), ionizable lipid concentration ([5]; 96 h post injection): 28.6 ng/mL (2×) and 12.9 ng/mL; Liver (ng/g), ionizable lipid concentration ([5]; 168 h post injection): 2277 ng/g and 2814 ng/g; Plasma (ng/mL), ionizable lipid concentration ([5]; 168 h post injection): 9.51 ng/mL and 8.26 ng/mL; concentration at 6 h [5, 13]: 48800 ng/g; concentration at 168 h ([5]; liver, 168 h post injection, read-out: Liver (ng/g), ionizable lipid concentration): 1640 ng/g; concentration at 1 h ([5]; plasma, 1 h post injection): 1640 ng/mL; concentration at 6 h ([5]; plasma, 6 h post injection, read-out: Plasma (ng/mL), ionizable lipid concentration): 966 ng/mL; concentration at 168 h ([5]; plasma, 168 h post injection, read-out: Plasma (ng/mL), ionizable lipid concentration): 9.51 ng/mL; In vitro Expression (Mean) (Hep G2 cells [2]; Formulation No. 001, RNA No. 331 (firefly-luciferase)): 4.84E+05; In vitro cell viability (%) (Mean) (Hep G2 cells [3]; Formulation No. 001, RNA No. 331, 1 μg/mL RNA-LNPs): 89.73%; Liver (p/s) (Mean) (Balb/c mice; [14]): 2.18E+08 p/s; Spleen (p/s) (Mean) (Balb/c mice; [14]): 7.61E+07 p/s; Whole body (p/s) (Mean) (Balb/c mice; [14]): 1.35E+09 p/s; Size (nm) ([4]; Formulation No. 001 (Ionizable lipid:DSPC:cholesterol:DMG-PEG2000 = 50:10:38.5:1.5, N/P 6)): 62.46 nm
96.00% | 94.45% | 96.73% | 0.06 | 68.99 nm | 0.06 | CCCCCCCC/C=C\CCCCCCCC(=O)NC(COC(=O)NCCN1CCCCC1)C(=O)OCCCCCCCCOC(=O)C(CCCCCC)CCCCCCCC (centres unmarked) [Lipid 700] | 281 pg/mL | 3270 pg/mL | 7.16E+05 | 3.61E+05 | 1 (2×) and 2 | — | 1 | 7 | 78.82% | 99.10% | 15 pg/mL | 143 pg/mL | 3.40E+08 p/s | 1.34E+08 p/s | Plasma (ng/mL), ionizable lipid concentration ([5]; 1 h post injection): 1272 ng/mL and 1635 ng/mL; Liver (ng/g), ionizable lipid concentration ([5]; 6 h post injection): 25720 ng/g and 25028 ng/g; Plasma (ng/mL), ionizable lipid concentration ([5]; 6 h post injection): 359 ng/mL and 641 ng/mL and 966 ng/mL; Plasma (ng/mL), ionizable lipid concentration ([5]; 96 h post injection): 5.84 ng/mL and 4.4 ng/mL and 28.6 ng/mL; Liver (ng/g), ionizable lipid concentration ([5]; 168 h post injection): 696.6 ng/g and 191.6 ng/g and 236.8 ng/g; Plasma (ng/mL), ionizable lipid concentration ([5]; 168 h post injection): 1.24 ng/mL and 9.51 ng/mL; concentration at 6 h [5, 13]: 26800 ng/g; concentration at 1 h ([5]; plasma, 1 h post injection): 1440 ng/mL; Size [4, 7]: 62.57 nm; Size (nm) [4, 12]: 55.29 nm; PDI [4, 8]: 0.07
